Here are results for 6 compounds from PMC9320964, “Improving the Therapeutic Index of Smp24, a Venom-Derived Antimicrobial Peptide: Increased Activity against Gram-Negative Bacteria” (International Journal of Molecular Sciences, 2022).

Type in all cases: cell-based
One series relates to sheep erythrocytes. Put plainly: Haemolysis assay. The following applies: peptides 0–512 µg/mL, triplicate, 10% Triton X-100 positive control. As to the method: Haemolytic activity was determined on sheep erythrocytes as described by Corzo, 2001 [23]. All samples were tested in triplicate and results given as HC50 values. Peptides were examined in the range of 0–512 µg/mL. 10% Triton X-100 was used as a positive control and deionised water with PBS as a negative control.

The test system of series [1] is Escherichia coli JM109. Put plainly: MIC by broth microdilution. The following applies: Muller Hinton broth, turbidity A600 nm. As to the method:
(§1) The bacterial isolates used in this study (Escherichia coli JM109, Staphylococcus aureus SH1000 and Pseudomonas aeruginosa H085180216) were obtained from the culture collection held at Sheffield Hallam University.
(§2) All antimicrobial assays were performed by a broth microdilution method in Muller Hinton (MH) broth using a CLARIOstar plate reader (BMG Labtech, Offenburg, Germany) to determine the minimum inhibitory concentration (MIC). The MIC was defined as the lowest concentration of antimicrobial peptide at which growth was inhibited when viewed as turbidity (A600 nm) against a negative broth control. To determine the minimum bactericidal concentration (MBC), 5 µL aliquots were taken from the wells of the MIC plate and spot-plated onto MH agar in triplicate. The plates were incubated for 18–24 h at 37 °C.
(In general: In broth dilution the organism is exposed to a series of concentrations in liquid medium.)

The subject of series [2] is Pseudomonas aeruginosa H085180216. Put plainly: MIC by broth microdilution. Conditions: Muller Hinton broth, turbidity A600 nm. As to the method:
as §1, §2

The subject of series [3] is Staphylococcus aureus SH1000. As to the kind of experiment: MIC by broth microdilution. The following applies: Muller Hinton broth, turbidity A600 nm. As to the method: as §1, §2
For series [4], the system named is Escherichia coli JM109. Put plainly: MBC by spot-plating from MIC plate. The following applies: 5 µL aliquots of MIC plate spot-plated onto MH agar in triplicate, 18–24 h at 37 °C. As to the method: as §1, §2
In series [5] the test system is Pseudomonas aeruginosa H085180216. Put plainly: MBC by spot-plating from MIC plate. Conditions: 5 µL aliquots of MIC plate spot-plated onto MH agar in triplicate, 18–24 h at 37 °C. As to the method:
as §1, §2

The test system of series [6] is Staphylococcus aureus SH1000. As to the kind of experiment: MBC by spot-plating from MIC plate. The following applies: 5 µL aliquots of MIC plate spot-plated onto MH agar in triplicate, 18–24 h at 37 °C. On the procedure:
as §1, §2

The next series has as its system HEK293 cells. Put plainly: LDH cytotoxicity assay. The following applies: LDH release, human kidney HEK293 cells, 0–512 µg/mL, 24 h, 37 °C, triplicate on 2 separate occasions. As to the method: (§3) An LDH assay (Fisher, Loughborough, UK) was used to determine the cytotoxic potential of the peptides against liver (HepG2) and kidney (HEK293) cells. Cells were grown in accordance with the manufacturer’s protocols. Cells were grown in DMEM containing 1 g/L D-glucose, 10% foetal bovine serum and 1% penicillin-streptomycin. Cells were grown to 80% confluence (37 °C, 5% CO2), washed twice with PBS, trypsinised, re-suspended and seeded at a density of […] in a 96-well plate. Cells were incubated for 24 h, and peptides or lipopeptide antibiotics (0–512 µg/mL) were added and incubated at 37 °C, 5% CO2 for 24 h. LDH release was determined via the manufacturer’s methods. All assays were performed in triplicate on 2 separate occasions. Triton X-100 (10%) was used as a positive control and deionised water as a negative control. Absorbance was read at 490 nm and 680 nm on a plate reader (CLARIOstar). LD50 values were calculated by plotting a dose–response curve and determining the dosage that would cause 50% cell death.
For orientation: LDH leaks from cells whose membrane has failed.

For another series, the system named is HepG2 cells. Put plainly: LDH cytotoxicity assay. Conditions: LDH release, human liver HepG2 cells, 0–512 µg/mL, 24 h, 37 °C, triplicate on 2 separate occasions. On the procedure: as §3

Converted amounts (≈) assume the structure as drawn. Marks after values point to notes of the source that are not given here. Residues, ends and D or L forms follow the SMILES beside them. No end group written: not given here. Where only a bound is given, the exact number is not on record here.

As to IWSFLIFAATKLLPSLFGGGKKDS [Smp24 K7F], the HC50 (commonly the concentration giving 50% haemolysis) with sheep erythrocytes (listed as K7F) was determined as 442 µg/mL.
For the compound `CCCCCCCCCC(=O)N[C@@H](Cc1c[nH]c2ccccc12)C(=O)N[C@H](CC(N)=O)C(=O)N[C@@H](CC(=O)O)C(=O)N[C@@H]1C(=O)NCC(=O)N[C@@H](CCCN)C(=O)N[C@@H](CC(=O)O)C(=O)N[C@H](C)C(=O)N[C@@H](CC(=O)O)C(=O)NCC(=O)N[C@H](CO)C(=O)N[C@@H]([C@H](C)CC(=O)O)C(=O)N[C@@H](CC(=O)c2ccccc2N)C(=O)O[C@@H]1C` [Daptomycin], the “MIC E. coli” value against Escherichia coli JM109 [1] was over 512 µg/mL. In series [2], the “MIC P. aeruginosa” value was over 512 µg/mL. In series [3], the “MIC S. aureus” value is 4 µg/mL (≈ 2.47 µM). In addition, the “MBC E. coli” value with Escherichia coli JM109 [4] is over 512 µg/mL. Moreover, in series [5], the “MBC P. aeruginosa” value was over 512 µg/mL. The “MBC S. aureus” value in [6] worked out at 8 µg/mL (≈ 4.94 µM). For the same compound, the HC50 was over 512 µg/mL in the series on sheep erythrocytes and at least 512 µg/mL in the series on sheep erythrocytes (listed as daptomycin). Besides, in the series on HEK293 cells, the “LD50 HEK293” value was over 512 µg/mL. Moreover, in the series with HepG2 cells, the “LD50 HepG2” value is over 512 µg/mL.
IASFLIKAATKLLPSLFGGGKKDS [Smp24 W2A] had an HC50 in the series with sheep erythrocytes (listed as W2A) of over 512 µg/mL.
As to IWSALIKAATKLLPSLFGGGKKDS [Smp24 F4A], in the series on sheep erythrocytes (listed as F4A), the HC50 amounted to 423 µg/mL.
Regarding IWSFLIKAATKLLPSLFGGGKKFS [Smp24 D23F], in the series with Escherichia coli JM109 [1], the “MIC E. coli” value turned out to be 32 µg/mL. Besides, the “MIC P. aeruginosa” value in series [2] worked out at 64 µg/mL. Moreover, in [3], the “MIC S. aureus” value came to 32 µg/mL. In the series on Escherichia coli JM109 [4], the “MBC E. coli” value stood at 32 µg/mL. In addition, in series [5], the “MBC P. aeruginosa” value worked out at 64 µg/mL. The “MBC S. aureus” value in series [6] turned out to be 32 µg/mL. Moreover, the HC50 with sheep erythrocytes was 33 * μg/mL. In addition, the “LD50 HEK293” value with HEK293 cells came out at 38 µg/mL. The “LD50 HepG2” value in the series with HepG2 cells is given as >512 * μg/mL.
`CC[C@H](C)CCCCC(=O)N[C@@H](CCN)C(=O)N[C@H](C(=O)N[C@@H](CCN)C(=O)N[C@H]1CCNC(=O)[C@H]([C@@H](C)O)NC(=O)[C@H](CCN)NC(=O)[C@H](CCN)NC(=O)[C@H](CC(C)C)NC(=O)[C@@H](Cc2ccccc2)NC(=O)[C@H](CCN)NC1=O)[C@@H](C)O` [Polymyxin B] (HELM PEPTIDE1{[CC[C@H](C)CCCCC(=O)[*:2]].[Dab].T.[Dab].[Dab].[Dab].[dF].L.[Dab].[Dab].T}$PEPTIDE1,PEPTIDE1,5:R3-11:R2$$$V2.0; N-terminus assumed; bridges inferred): the “MIC E. coli” value in the series on Escherichia coli JM109 [1] is 2 µg/mL (≈ 1.66 µM). Besides, in series [2], the “MIC P. aeruginosa” value amounted to 2 µg/mL (≈ 1.66 µM). Further, the “MIC S. aureus” value in series [3] was found to be 32 µg/mL (≈ 26.6 µM). Besides, the “MBC E. coli” value with Escherichia coli JM109 [4] came to 4 µg/mL (≈ 3.32 µM). Also, the “MBC P. aeruginosa” value in series [5] came out at 8 µg/mL (≈ 6.65 µM). The “MBC S. aureus” value in series [6] worked out at 64 µg/mL (≈ 53.2 µM). Besides, the HC50 was over 512 µg/mL in the series with sheep erythrocytes and at least 512 µg/mL in the series on sheep erythrocytes (listed as polymyxin B). In addition, the “LD50 HEK293” value in the series on HEK293 cells amounted to 351 µg/mL. For the same compound, in the series on HepG2 cells, the “LD50 HepG2” value is over 512 µg/mL.
